Measurements taken from US10239843B2 (CANCER RESEARCH TECHNOLOGY LIMITED, priority 2014, dated 2019).
Read-outs that look alike come from different tables or passages of the source.

How the values were obtained:
Human Full Length PARG = Human Full Length PARG (Homo sapiens (Human), UniProt Q86W56); test: PARG enzyme assay (TR-FRET); assay type: biochemical
PARG in HeLa cell line = test: PARG cell assay (PAR chain immunofluorescence after MMS); assay type: cell-based; conditions: HeLa cells
Procedure, shortened: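 Nuclear poly(ADP-ribose) chains in HeLa cells are read by indirect immunofluorescence with a mouse anti-PAR antibody applied overnight at 4° C after fixing and permeabilising. Cells get 1 h of compound, then 50 μg/mL MMS (final) for another hour. PAR persisting at that point reflects PARG inhibition.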

[1] = Homo sapiens, MMS treatment, read-out: PARG Cell IC50
[2] = read-out: PARG Biochem IC50 Geomean
[3] = Homo sapiens, MMS 50 μg/mL, read-out: PARG Cell IC50 Geomean
[4] = MMS 50 μg/mL, read-out: PARG Cell IC50 Geomean
[5] = MMS treatment, read-out: PARG Cell IC50

Human Full Length PARG, sequence (Q86W56 whole entry): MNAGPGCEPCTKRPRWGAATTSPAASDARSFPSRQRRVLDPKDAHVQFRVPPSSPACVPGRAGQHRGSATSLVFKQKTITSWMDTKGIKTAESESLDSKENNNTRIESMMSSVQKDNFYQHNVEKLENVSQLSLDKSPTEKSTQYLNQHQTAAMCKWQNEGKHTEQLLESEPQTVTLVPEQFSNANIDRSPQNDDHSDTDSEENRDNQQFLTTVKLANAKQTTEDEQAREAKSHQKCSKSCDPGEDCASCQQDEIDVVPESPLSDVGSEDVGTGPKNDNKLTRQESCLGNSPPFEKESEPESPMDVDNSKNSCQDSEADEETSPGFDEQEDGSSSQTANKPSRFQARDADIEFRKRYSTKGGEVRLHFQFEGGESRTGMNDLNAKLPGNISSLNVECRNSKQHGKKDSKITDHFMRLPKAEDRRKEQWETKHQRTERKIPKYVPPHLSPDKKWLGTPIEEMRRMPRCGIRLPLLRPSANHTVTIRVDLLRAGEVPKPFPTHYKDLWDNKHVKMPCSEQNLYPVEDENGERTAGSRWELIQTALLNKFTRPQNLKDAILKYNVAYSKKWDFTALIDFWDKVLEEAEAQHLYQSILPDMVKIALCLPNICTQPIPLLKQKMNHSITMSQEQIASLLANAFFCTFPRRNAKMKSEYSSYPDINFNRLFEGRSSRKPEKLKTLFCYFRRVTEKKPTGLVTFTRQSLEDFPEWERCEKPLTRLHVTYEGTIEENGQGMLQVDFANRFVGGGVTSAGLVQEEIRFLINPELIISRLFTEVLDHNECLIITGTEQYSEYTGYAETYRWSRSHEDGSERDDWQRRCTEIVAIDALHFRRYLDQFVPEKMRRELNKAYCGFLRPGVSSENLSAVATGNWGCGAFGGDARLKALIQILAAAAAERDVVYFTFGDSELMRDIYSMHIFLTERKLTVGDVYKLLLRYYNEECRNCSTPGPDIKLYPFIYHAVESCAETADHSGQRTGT

| SMILES | IC50 (Human Full Length PARG; read-out: PARG Biochem IC50) | IC50 (PARG in HeLa cell line; [1]) | IC50 (Human Full Length PARG; [2]) | IC50 (PARG in HeLa cell line; [3]) | further results |
| --- | --- | --- | --- | --- | --- |
| Cn1cc(Cn2c(=O)c3cc(S(=O)(=O)NC4(CF)CC4)ccc3n(Cc3ccc(F)cc3)c2=O)cn1 [Example 419, N-[1-(Fluoromethyl)cyclopropyl]-1-[(4-fluorophenyl)methyl]-3-[(1-methylpyrazol-4-yl)methyl]-2,4-dioxo-quinazoline-6-sulfonamide] | 106 nM | 118 nM |  |  |  |
| Cc1cc(Cn2c(=O)c3cc(S(=O)(=O)NC4(C)CC4)ccc3n(CCC(C)C)c2=O)on1 [Example 472, 1-Isopentyl-N-(1-methylcyclopropyl)-3-[(3-methylisoxazol-5-yl)methyl]-2,4-dioxo-quinazoline-6-sulfonamide] | 273 nM | 198 nM |  |  |  |
| Cc1ncc(Cn2c(=O)c3cc(S(=O)(=O)NC4(C#N)CC4)ccc3n(Cc3cnn(C)c3)c2=O)s1 [Example 457, N-(1-Cyanocyclopropyl)-1-[(1-methylpyrazol-4-yl)methyl]-3-[(2-methylthiazol-5-yl)methyl]-2,4-dioxo-quinazoline-6-sulfonamide] | 42 nM | 494 nM |  |  |  |
| Cc1cc(Cn2c(=O)c3cc(S(=O)(=O)NC4(C)CC4)ccc3n(C3COC3)c2=O)on1 [Example 339] |  |  | 479 nM | 487 nM |  |
| Cn1cc(Cn2c(=O)c3cc(S(=O)(=O)NC4(C)CC4)ccc3n(CC3CCSCC3)c2=O)cn1 [Example 380] |  |  | 59 nM | 90 nM |  |
| Cc1cc(Cn2c(=O)c3cc(S(=O)(=O)NC4(C)CC4)ccc3n(Cc3ccc(F)cc3)c2=O)on1 [Example 199] |  |  | 92 nM |  | IC50 (PARG in HeLa cell line; [4]): 99 nM |
| C#CCn1c(=O)n(Cc2cc(C)no2)c(=O)c2cc(S(=O)(=O)NC3(CF)CC3)ccc21 [Example 532, N-[1-(Fluoromethyl)cyclopropyl]-3-[(3-methylisoxazol-5-yl)methyl]-2,4-dioxo-1-prop-2-ynyl-quinazoline-6-sulfonamide] | 120 nM |  |  |  | IC50 (PARG in HeLa cell line; [5]): 87 nM |
| Cn1c(=O)n(CCC#N)c(=O)c2cc(S(=O)(=O)NC3(C)CC3)ccc21 [Example 497, 3-(2-Cyanoethyl)-1-methyl-N-(1-methylcyclopropyl)-2,4-dioxo-quinazoline-6-sulfonamide] | 2710 nM | 2250 nM |  |  |  |
| Cc1ncc(Cn2c(=O)c3cc(S(=O)(=O)NC4(C)CC4)ccc3n(CC3CC(C)(C)C3)c2=O)s1 [Example 478, 1-[(3,3-dimethylcyclobutyl)methyl]-N-(1-methylcyclopropyl)-3-[(2-methylthiazol-5-yl)methyl]-2,4-dioxo-quinazoline-6-sulfonamide] | 109 nM | 121 nM |  |  |  |
| Cc1ncc(Cn2c(=O)c3cc(S(=O)(=O)NC4(C#N)CC4)ccc3n(Cc3ccc(F)cc3)c2=O)s1 [Example 402, N-(1-Cyanocyclopropyl)-1-[(4-fluorophenyl)methyl]-3-[(2-methylthiazol-5-yl)methyl]-2,4-dioxo-quinazoline-6-sulfonamide] | 66 nM | 167 nM |  |  |  |
| Cc1nnc(Cn2c(=O)n(Cc3cnn(C)c3)c(=O)c3cc(S(=O)(=O)NC4(CF)CC4)ccc32)s1 [Example 583, N-[1-(Fluoromethyl)cyclopropyl]-3-[(1-methylpyrazol-4-yl)methyl]-1-[(5-methyl-1,3,4-thiadiazol-2-yl)methyl]-2,4-dioxo-quinazoline-6-sulfonamide] | 93 nM | 153 nM |  |  |  |
| Cn1nc(C(C)(C)C)cc1Cn1c(=O)n(C)c(=O)c2cc(S(=O)(=O)NC3(C)CC3)ccc21 [Example 149] |  |  | 293 nM | 518 nM |  |
| CCn1c(=O)n(Cc2cnn(C)c2)c(=O)c2cc(S(=O)(=O)NC3(C#N)CC3)ccc21 [Example 347] |  |  | 210 nM | 916 nM |  |
| Cn1cc(Cn2c(=O)c3cc(S(=O)(=O)NC4(C)CC4)ccc3n(CC3CC(C)(C)O3)c2=O)cn1 (stereo not shown) [Example 351] |  |  | 229 nM | 358 nM |  |
| C#CCn1c(=O)n(Cc2cnn(C)c2)c(=O)c2cc(S(=O)(=O)NC3(CF)CC3)ccc21 [Example 440, N-[1-(Fluoromethyl)cyclopropyl]-3-[(1-methylpyrazol-4-yl)methyl]-2,4-dioxo-1-prop-2-ynyl-quinazoline-6-sulfonamide] | 68 nM |  |  |  | IC50 (PARG in HeLa cell line; [5]): 50 nM |
| Cc1cc(Cn2nc(CC3CC3)c3ccc(S(=O)(=O)NC4(C)CC4)cc3c2=O)on1 [Example 318] |  |  | 352 nM | 319 nM |  |
| Cn1cc(Cn2c(=O)c3cc(S(=O)(=O)NC4(C#N)CC4)ccc3n(CC3CC3)c2=O)cn1 [Example 346] |  |  | 47 nM | 390 nM |  |
| Cn1cc(Cn2c(=O)c3cc(S(=O)(=O)NC4(C)CC4)ccc3n(CC3CC3(F)F)c2=O)cn1 (stereo not shown) [Example 435, 1-[(2,2-Difluorocyclopropyl)methyl]-N-(1-methylcyclopropyl)-3-[(1-methylpyrazol-4-yl)methyl]-2,4-dioxo-quinazoline-6-sulfonamide] | 104 nM | 46 nM |  |  |  |

| SMILES | IC50 (Human Full Length PARG; read-out: PARG Biochem IC50) | IC50 (PARG in HeLa cell line; [1]) | IC50 (Human Full Length PARG; [2]) | IC50 (PARG in HeLa cell line; [3]) | further results |
| --- | --- | --- | --- | --- | --- |
| Cn1cc(Cn2c(=O)n(C)c(=O)c3cc(S(=O)(=O)NC4(C)CC4)ccc32)cn1 [Example 152] |  |  | 463 nM | 520 nM |  |
| Cn1cc(Cn2c(=O)c3cc(S(=O)(=O)NC4(C(F)F)CC4)ccc3n(Cc3ccc(F)cc3)c2=O)cn1 [Example 460, N-[1-(Difluoromethyl)cyclopropyl]-1-[(4-fluorophenyl)methyl]-3-[(1-methylpyrazol-4-yl)methyl]-2,4-dioxo-quinazoline-6-sulfonamide] | 333 nM | 487 nM |  |  |  |
| Cn1cc(Cn2c(=O)c3cc(S(=O)(=O)NC4(C)CC4)c(F)cc3n(CC3CCOC3)c2=O)cn1 (stereo not shown) [Example 395, 7-Fluoro-N-(1-methylcyclopropyl)-3-[(1-methylpyrazol-4-yl)methyl]-2,4-dioxo-1-(tetrahydrofuran-3-ylmethyl)quinazoline-6-sulfonamide] |  |  | 60 nM | 156 nM |  |
| Cc1cc(Cn2c(=O)n(Cc3cnn(C)c3)c(=O)c3cc(S(=O)(=O)NC4(C(F)F)CC4)ccc32)n(C)n1 [Example 459, N-[1-(Difluoromethyl)cyclopropyl]-1-[(2,5-dimethylpyrazol-3-yl)methyl]-3-[(1-methylpyrazol-4-yl)methyl]-2,4-dioxo-quinazoline-6-sulfonamide] | 325 nM | 1250 nM |  |  |  |
| Cn1cc(Cn2c(=O)[nH]c3c(Br)cc(S(=O)(=O)NC4(C)CC4)cc3c2=O)cn1 [Example 422, 8-Bromo-N-(1-methylcyclopropyl)-3-[(1-methylpyrazol-4-yl)methyl]-2,4-dioxo-1H-quinazoline-6-sulfonamide] | 512 nM | 611 nM |  |  |  |
| Cc1nnc(Cn2c(=O)c3cc(S(=O)(=O)NC4(CF)CC4)ccc3n(C)c2=O)s1 [Example 515, N-[1-(Fluoromethyl)cyclopropyl]-1-methyl-3-[(5-methyl-1,3,4-thiadiazol-2-yl)methyl]-2,4-dioxo-quinazoline-6-sulfonamide] | 579 nM | 698 nM |  |  |  |
| CN(C)C(=O)Cn1c(=O)c2cc(S(=O)(=O)NC3(C)CC3)ccc2n(C)c1=O [Example 476, N,N-Dimethyl-2-[1-methyl-6-[(1-methylcyclopropyl)sulfamoyl]-2,4-dioxo-quinazolin-3-yl]acetamide] | 3710 nM | 1340 nM |  |  |  |
| Cn1cc(Cn2c(=O)c3cc(S(=O)(=O)NC4(CF)CC4)ccc3n(CCF)c2=O)cn1 [Example 544, 1-(2-Fluoroethyl)-N-[1-(fluoromethyl)cyclopropyl]-3-[(1-methylpyrazol-4-yl)methyl]-2,4-dioxo-quinazoline-6-sulfonamide] | 151 nM | 86 nM |  |  |  |
| Cn1cc(Cn2c(=O)c3cc(S(=O)(=O)NC4(CF)CC4)ccc3n(Cc3nc[nH]n3)c2=O)cn1 [Example 587, N-[1-(Fluoromethyl)cyclopropyl]-3-[(1-methylpyrazol-4-yl)methyl]-2,4-dioxo-1-(1H-1,2,4-triazol-3-ylmethyl)quinazoline-6-sulfonamide] | 207 nM | 7980 nM |  |  |  |
| CC1(NS(=O)(=O)c2ccc3[nH]c(=O)c(Br)cc3c2)CC1 [Example 487, 3-Bromo-N-(1-methylcyclopropyl)-2-oxo-1H-quinoline-6-sulfonamide] | 8970 nM | > 30000 nM |  |  |  |
| Cn1cc(Cn2c(=O)c3cc(S(=O)(=O)NC4(CF)CC4)ccc3n(CCn3cccn3)c2=O)cn1 [Example 560, N-[1-(Fluoromethyl)cyclopropyl]-3-[(1-methylpyrazol-4-yl)methyl]-2,4-dioxo-1-(2-pyrazol-1-ylethyl)quinazoline-6-sulfonamide] | 530 nM |  |  |  | IC50 (PARG in HeLa cell line; [5]): 810 nM |
| Cc1nnc(Cn2c(=O)n(Cc3cnn(C)c3)c(=O)c3cc(S(=O)(=O)NC4(CF)CC4)ccc32)o1 [Example 567, N-[1-(Fluoromethyl)cyclopropyl]-1-[(5-methyl-1,3,4-oxadiazol-2-yl)methyl]-3-[(1-methylpyrazol-4-yl)methyl]-2,4-dioxo-quinazoline-6-sulfonamide] | 225 nM | 855 nM |  |  |  |
| Cc1cc(Cn2c(=O)n(C)c(=O)c3cc(S(=O)(=O)NC4(C)CC4)c(F)cc32)n(C)n1 [Example 213] |  |  | 473 nM | 787 nM |  |
| Cn1cc(Cn2c(=O)c3cc(S(=O)(=O)NC4(C)CC4)ccc3n(CCF)c2=O)cn1 [Example 410, 1-(2-Fluoroethyl)-N-(1-methylcyclopropyl)-3-[(1-methylpyrazol-4-yl)methyl]-2,4-dioxo-quinazoline-6-sulfonamide] | 263 nM | 126 nM |  |  |  |
| CN(C)CCn1c(=O)n(Cc2cnn(C)c2)c(=O)c2cc(S(=O)(=O)NC3(C)CC3)ccc21 [Example 235] |  |  | 224 nM |  | IC50 (PARG in HeLa cell line; [4]): 314 nM |
| Cc1cc(COc2nc3ccc(S(=O)(=O)NC4(C)CC4)cc3c(=O)n2Cc2cnc(C)s2)n(C)n1 [Example 164] |  |  | 343 nM |  | IC50 (PARG in HeLa cell line; [4]): 782 nM |
| C#CCn1c(=O)n(Cc2cnn(C)c2)c(=O)c2cc(S(=O)(=O)NC3(C)CC3)ccc21 [Example 178] |  |  | 52 nM | 126 nM |  |
